Assay results reported in publication doi:10.1101/2025.11.23.690065v1 (biorxiv, 2025).

Assays:
LAG-3 [1] = target: T1, LAG-3 (Homo sapiens, UniProt P18627); assay: single-dose TRIC screen; assay type: binding; conditions: 2% DMSO; bound from single-dose screen at 300 µM
T1 sequence (P18627 23-525): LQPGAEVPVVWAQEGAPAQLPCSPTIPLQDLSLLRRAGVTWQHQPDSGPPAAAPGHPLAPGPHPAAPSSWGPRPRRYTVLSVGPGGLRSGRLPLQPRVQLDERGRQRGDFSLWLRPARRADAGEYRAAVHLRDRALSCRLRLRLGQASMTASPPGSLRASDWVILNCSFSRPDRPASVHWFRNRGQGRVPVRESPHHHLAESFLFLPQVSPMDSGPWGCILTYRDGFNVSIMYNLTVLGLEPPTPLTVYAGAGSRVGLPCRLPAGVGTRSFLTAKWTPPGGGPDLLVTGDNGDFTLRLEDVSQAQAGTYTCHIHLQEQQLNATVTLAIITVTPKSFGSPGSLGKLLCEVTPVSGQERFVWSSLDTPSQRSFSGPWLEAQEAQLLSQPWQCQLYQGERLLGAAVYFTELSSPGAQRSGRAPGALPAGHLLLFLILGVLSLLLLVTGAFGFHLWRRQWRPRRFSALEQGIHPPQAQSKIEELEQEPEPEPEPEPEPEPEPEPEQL

TREM1 [2] = target: T2, TREM1 (Homo sapiens, UniProt Q9NP99); assay: MST; assay type: binding
T2 sequence (Q9NP99 21-205 limits assumed): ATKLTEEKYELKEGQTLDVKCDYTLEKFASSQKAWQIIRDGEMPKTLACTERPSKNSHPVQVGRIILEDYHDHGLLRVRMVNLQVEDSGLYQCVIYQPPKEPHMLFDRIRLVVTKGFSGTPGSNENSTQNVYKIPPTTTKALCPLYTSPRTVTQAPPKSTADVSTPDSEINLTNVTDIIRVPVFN

His-TREM2 (TREM2) [3] = target: T3, His-TREM2 (TREM2) (Homo sapiens, UniProt Q9NZC2); assay: MST; assay type: binding
T3 sequence (Q9NZC2 19-174 limits assumed): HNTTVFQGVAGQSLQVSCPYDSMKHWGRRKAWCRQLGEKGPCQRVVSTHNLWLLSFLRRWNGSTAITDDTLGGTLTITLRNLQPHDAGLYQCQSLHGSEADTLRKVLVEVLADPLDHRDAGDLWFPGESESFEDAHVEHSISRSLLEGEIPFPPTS

TREM1 [4] = target: T2, TREM1; assay: single-dose TRIC/MST screen; assay type: binding; conditions: PBS pH 7.4, 0.05% Tween-20; bound from single-dose screen at 300 µM
LAG-3 [5] = target: T1, LAG-3; assay: MST; assay type: binding
His-TREM2 (TREM2) [6] = target: T3, His-TREM2 (TREM2); assay: biochemical
His-TREM2 (TREM2) [7] = target: T3, His-TREM2 (TREM2); assay: nanoDSF thermal shift, dose-response; assay type: binding
His-TREM2 (TREM2) [8] = target: T3, His-TREM2 (TREM2); assay: nanoDSF thermal shift; assay type: binding; conditions: read-out: ΔTm at 100 μM

| Compound | KD (LAG-3 [1]) [µM] | Kd (TREM1 [2]) [µM] | Kd (His-TREM2 (TREM2) [3]) [µM] | KD (TREM1 [4]) [µM] | Kd (LAG-3 [5]) [µM] | Kd (His-TREM2 (TREM2) [6]) [µM] | EC50 (His-TREM2 (TREM2) [7]) [µM] | ΔTm at 100 µM (His-TREM2 (TREM2) [8]) [°C] |
| --- | --- | --- | --- | --- | --- | --- | --- | --- |
| O=C(O)C1CC2CCCCC2N1Cc1cc(=O)n2ccccc2n1 (stereo not drawn) [7G19-5] | > 300 | 56.6 ± 8.6 | 4.5 ± 0.9 |  |  |  |  |  |
| Cc1cccc(Cn2cccc(C(=O)NC3CCCCCC3)c2=O)c1 [2M06-8] | > 300 |  | > 300 | > 300 |  |  |  |  |
| COC1(CC(=O)Nc2ccc3c(c2)CCN3)CCC1 [6B10-3] | > 300 |  | > 300 | > 300 |  |  |  |  |
| NC(=O)C1CCN(C(=O)c2cccn(Cc3ccccc3)c2=O)CC1 [2M06-1] | > 300 |  | 124 ± 36 | > 300 |  |  |  |  |
| CC(=O)N1CCc2cc(NC(=O)C3(C#N)CCCC3)ccc21 [6B10-13] | > 300 |  | > 300 | > 300 |  |  |  |  |
| CC(C)(C)CC(=O)Nc1ccc2c(c1)CCN2 [6B10-2] | > 300 |  | > 300 | > 300 |  |  |  |  |
| CC1(C(=O)Nc2ccc3c(c2)CCN3C(=O)c2ccoc2)CCCC1 [6B10-8] | > 300 |  | 127 ± 16 | > 300 |  | 136 ± 14 |  |  |
| O=C1CCCN1c1ccc2c(c1)CCN2 [6B10-1] |  | 121 ± 3.4 | 19.5 ± 6.8 |  | 59.4 ± 14.1 |  |  |  |
| O=C(Nc1ccc2c(c1)CCN2C(=O)c1ccoc1)C1CC2C=CC1C2 (stereo not drawn) [6B10-9] | > 300 |  | 68.3 ± 2.8 | > 300 |  |  | 62 | > 2 |

The remaining lines, values ahead:

| KD (LAG-3 [1]) [µM] | Kd (TREM1 [2]) [µM] | Kd (His-TREM2 (TREM2) [3]) [µM] | KD (TREM1 [4]) [µM] | Kd (LAG-3 [5]) [µM] | Kd (His-TREM2 (TREM2) [6]) [µM] | EC50 (His-TREM2 (TREM2) [7]) [µM] | ΔTm at 100 µM (His-TREM2 (TREM2) [8]) [°C] | Compound |
| --- | --- | --- | --- | --- | --- | --- | --- | --- |
| > 300 | 66.9 ± 28.6 | 37.6 ± 15.8 |  |  |  |  |  | O=C(Nc1ccc2c(c1)CCN2)C1CCCC1 [6B10] |
| > 300 |  | 26.1 ± 5.1 | > 300 |  |  |  |  | Cc1cccc(Cn2cccc(C(=O)N3C(C(=O)O)CC4CCCCC43)c2=O)c1 (stereo not drawn) [2M06] |
|  | 46.5 ± 38.1 | 3.8 ± 0.3 |  | 61.9 ± 23.2 |  |  |  | Cc1cccn2c(=O)cc(CN3C(C(=O)O)CC4CCCCC43)nc12 (stereo not drawn) [7G19] |
| > 300 |  | > 300 | > 300 |  |  |  |  | Cn1cc(C(=O)N2C(C(=O)O)CC3CCCCC32)ccc1=O (stereo not drawn) [2M06-6] |
